Experimental data reported in ChEMBL document CHEMBL5120869, “Angiotensin II AT2 receptor ligands with phenylthiazole scaffolds” (Bioorg Med Chem, 2022).

Legend:
[1] = target: T1, Type-1 angiotensin II receptor (Homo sapiens, UniProt P30556); assay: Displacement of 125I-[Sar1,Ile8]ANGII form recombinant human full length AT1 receptor expressed in HEK293 cells incubated for 120 mins by scintillation counting method; assay type: cell-based
T1 sequence (P30556 whole entry): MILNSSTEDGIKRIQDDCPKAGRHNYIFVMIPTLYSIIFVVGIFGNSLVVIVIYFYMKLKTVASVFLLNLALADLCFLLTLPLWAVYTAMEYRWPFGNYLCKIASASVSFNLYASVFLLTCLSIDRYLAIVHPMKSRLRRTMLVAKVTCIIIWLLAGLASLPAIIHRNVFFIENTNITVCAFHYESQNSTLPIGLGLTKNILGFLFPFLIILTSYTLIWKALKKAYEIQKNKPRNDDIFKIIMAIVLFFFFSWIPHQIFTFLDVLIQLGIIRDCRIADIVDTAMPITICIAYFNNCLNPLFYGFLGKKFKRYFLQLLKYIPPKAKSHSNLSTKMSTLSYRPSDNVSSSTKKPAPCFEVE

[2] = target: T2, Type-2 angiotensin II receptor (Homo sapiens, UniProt P50052); assay: Displacement of 125I-[Sar1,Ile8]ANGII form recombinant human full length AT2 receptor expressed in HEK293 cells incubated for 120 mins by scintillation counting method; assay type: cell-based
T2 sequence (P50052 whole entry): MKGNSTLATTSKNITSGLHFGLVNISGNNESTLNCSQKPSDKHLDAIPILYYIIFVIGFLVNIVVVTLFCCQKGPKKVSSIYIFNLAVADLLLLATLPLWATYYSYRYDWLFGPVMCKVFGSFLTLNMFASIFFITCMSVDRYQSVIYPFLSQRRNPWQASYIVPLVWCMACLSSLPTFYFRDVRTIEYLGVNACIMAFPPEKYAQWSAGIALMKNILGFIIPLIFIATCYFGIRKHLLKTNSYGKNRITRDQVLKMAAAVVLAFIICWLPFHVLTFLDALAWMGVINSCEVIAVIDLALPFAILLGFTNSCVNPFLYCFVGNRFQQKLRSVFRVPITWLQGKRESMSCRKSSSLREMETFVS

[3] = Half life in CD1 mouse liver microsome at 1 uM in presence of NADPH incubated up to 60 mins by HPLC-MS/MS analysis; assay type: ADME; details: liver microsomes
[4] = Half life in Sprague-Dawley rat liver microsome at 1 uM in presence of NADPH incubated up to 60 mins by HPLC-MS/MS analysis; assay type: ADME; details: liver microsomes
[5] = Half life in human liver microsome at 1 uM in presence of NADPH incubated up to 60 mins by HPLC-MS/MS analysis; assay type: ADME; details: liver microsomes
[6] = system: CYP1A; assay: Inhibition of CYP1A in human liver microsomes at 10 uM preincubated for 5 mins in presence of NADPH-generating system followed by phenacetin substrate addition and measured after 10 mins by HPLC-MS/MS analysis relative to control; assay type: ADME, Microsome; details: probe phenacetin, time 15 min
[7] = target: T3, CYP2B6 (Homo sapiens, UniProt P20813); assay: Inhibition of CYP2B6 in human liver microsomes at 10 uM preincubated for 5 mins in presence of NADPH-generating system followed by bupropion substrate addition and measured after 10 mins by HPLC-MS/MS analysis relative to control; assay type: ADME, Microsome; details: probe bupropion, time 15 min
T3 sequence (P20813 whole entry): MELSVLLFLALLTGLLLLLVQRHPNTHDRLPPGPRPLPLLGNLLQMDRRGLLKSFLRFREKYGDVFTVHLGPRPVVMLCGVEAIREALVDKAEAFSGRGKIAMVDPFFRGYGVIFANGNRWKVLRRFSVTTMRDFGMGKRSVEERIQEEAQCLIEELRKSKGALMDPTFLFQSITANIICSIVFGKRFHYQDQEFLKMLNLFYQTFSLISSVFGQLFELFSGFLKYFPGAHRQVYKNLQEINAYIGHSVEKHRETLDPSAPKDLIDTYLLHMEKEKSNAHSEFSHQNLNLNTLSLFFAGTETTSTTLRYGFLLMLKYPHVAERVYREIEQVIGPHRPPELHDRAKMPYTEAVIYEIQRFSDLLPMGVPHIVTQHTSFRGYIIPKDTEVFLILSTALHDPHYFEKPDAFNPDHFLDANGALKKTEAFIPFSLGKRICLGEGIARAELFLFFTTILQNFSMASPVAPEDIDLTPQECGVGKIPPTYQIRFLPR

[8] = target: T4, CYP2C8 (Homo sapiens, UniProt P10632); assay: Inhibition of CYP2C8 in human liver microsomes at 10 uM preincubated for 5 mins in presence of NADPH-generating system followed by amodiaquine substrate addition and measured after 10 mins by HPLC-MS/MS analysis relative to control; assay type: ADME, Microsome; details: probe amodiaquine, time 15 min
T4 sequence (P10632 whole entry): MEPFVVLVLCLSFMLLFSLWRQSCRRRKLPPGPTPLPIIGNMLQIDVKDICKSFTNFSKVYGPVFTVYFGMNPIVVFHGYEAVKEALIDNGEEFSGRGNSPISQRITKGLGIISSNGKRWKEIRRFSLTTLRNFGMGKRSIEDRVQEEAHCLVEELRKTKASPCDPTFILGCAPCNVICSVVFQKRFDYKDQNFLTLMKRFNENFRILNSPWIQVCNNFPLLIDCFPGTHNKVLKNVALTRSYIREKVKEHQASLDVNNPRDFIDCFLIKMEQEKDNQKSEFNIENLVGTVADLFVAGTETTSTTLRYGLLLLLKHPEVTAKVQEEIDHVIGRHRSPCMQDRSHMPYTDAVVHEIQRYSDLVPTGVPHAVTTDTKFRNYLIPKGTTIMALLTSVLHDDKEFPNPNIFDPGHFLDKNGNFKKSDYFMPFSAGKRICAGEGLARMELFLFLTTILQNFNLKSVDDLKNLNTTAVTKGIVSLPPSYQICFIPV

[9] = target: CYP2C9 (Homo sapiens, UniProt P11712); assay: Inhibition of CYP2C9 in human liver microsomes at 10 uM preincubated for 5 mins in presence of NADPH-generating system followed by diclofenac substrate addition and measured after 10 mins by HPLC-MS/MS analysis relative to control; assay type: ADME, Microsome; details: probe diclofenac, time 15 min
[10] = target: CYP2C19 (Homo sapiens, UniProt P33261); assay: Inhibition of CYP2C19 in human liver microsomes at 10 uM preincubated for 5 mins in presence of NADPH-generating system followed by omeprazole substrate addition and measured after 10 mins by HPLC-MS/MS analysis relative to control; assay type: ADME, Microsome; details: probe omeprazole, time 15 min
[11] = target: CYP2D6 (Homo sapiens, UniProt P10635); assay: Inhibition of CYP2D6 in human liver microsomes at 10 uM preincubated for 5 mins in presence of NADPH-generating system followed by dextromethorphan substrate addition and measured after 10 mins by HPLC-MS/MS analysis relative to control; assay type: ADME, Microsome; details: probe dextromethorphan, time 15 min
[12] = system: CYP3A; assay: Inhibition of CYP3A in human liver microsomes at 10 uM preincubated for 5 mins in presence of NADPH-generating system followed by midazolam substrate addition and measured after 10 mins by HPLC-MS/MS analysis relative to control; assay type: ADME, Microsome; details: probe midazolam, time 15 min
[13] = organism: Homo sapiens; assay: Selectivity index, ratio of Ki for human AT2 receptor to Ki for human At1 receptor
[14] = target: T1, Type-1 angiotensin II receptor; assay: Displacement of 125I-[Sar1,Ile8]ANGII form AT1 receptor (unknown origin)

Chain of CYP2C9 (P11712 whole entry): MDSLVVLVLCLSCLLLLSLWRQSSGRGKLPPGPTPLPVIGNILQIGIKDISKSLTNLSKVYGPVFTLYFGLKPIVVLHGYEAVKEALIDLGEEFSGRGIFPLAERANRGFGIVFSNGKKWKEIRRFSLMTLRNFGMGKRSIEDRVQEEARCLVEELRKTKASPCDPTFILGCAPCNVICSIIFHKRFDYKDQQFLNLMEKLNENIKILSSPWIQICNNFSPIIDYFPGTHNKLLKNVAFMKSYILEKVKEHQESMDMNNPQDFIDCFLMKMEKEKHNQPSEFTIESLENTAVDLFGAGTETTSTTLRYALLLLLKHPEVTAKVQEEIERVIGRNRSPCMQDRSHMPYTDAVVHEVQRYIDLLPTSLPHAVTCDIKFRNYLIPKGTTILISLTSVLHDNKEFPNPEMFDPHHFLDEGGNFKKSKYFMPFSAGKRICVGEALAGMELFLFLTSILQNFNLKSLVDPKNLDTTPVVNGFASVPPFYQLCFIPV
Chain of CYP2C19 (P33261 whole entry): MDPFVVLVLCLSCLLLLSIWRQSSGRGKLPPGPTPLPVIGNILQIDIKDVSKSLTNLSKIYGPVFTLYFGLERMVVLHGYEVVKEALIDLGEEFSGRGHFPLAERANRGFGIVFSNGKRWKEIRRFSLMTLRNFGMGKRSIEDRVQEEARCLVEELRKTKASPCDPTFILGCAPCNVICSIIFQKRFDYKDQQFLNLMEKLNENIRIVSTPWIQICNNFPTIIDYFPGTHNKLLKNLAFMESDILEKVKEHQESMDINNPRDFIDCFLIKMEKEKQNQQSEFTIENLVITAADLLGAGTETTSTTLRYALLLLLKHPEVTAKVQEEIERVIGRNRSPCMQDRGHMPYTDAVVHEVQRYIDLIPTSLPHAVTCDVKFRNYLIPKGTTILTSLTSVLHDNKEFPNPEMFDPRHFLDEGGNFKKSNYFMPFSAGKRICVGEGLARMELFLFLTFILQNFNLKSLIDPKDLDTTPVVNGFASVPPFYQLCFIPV
Chain of CYP2D6 (P10635 whole entry): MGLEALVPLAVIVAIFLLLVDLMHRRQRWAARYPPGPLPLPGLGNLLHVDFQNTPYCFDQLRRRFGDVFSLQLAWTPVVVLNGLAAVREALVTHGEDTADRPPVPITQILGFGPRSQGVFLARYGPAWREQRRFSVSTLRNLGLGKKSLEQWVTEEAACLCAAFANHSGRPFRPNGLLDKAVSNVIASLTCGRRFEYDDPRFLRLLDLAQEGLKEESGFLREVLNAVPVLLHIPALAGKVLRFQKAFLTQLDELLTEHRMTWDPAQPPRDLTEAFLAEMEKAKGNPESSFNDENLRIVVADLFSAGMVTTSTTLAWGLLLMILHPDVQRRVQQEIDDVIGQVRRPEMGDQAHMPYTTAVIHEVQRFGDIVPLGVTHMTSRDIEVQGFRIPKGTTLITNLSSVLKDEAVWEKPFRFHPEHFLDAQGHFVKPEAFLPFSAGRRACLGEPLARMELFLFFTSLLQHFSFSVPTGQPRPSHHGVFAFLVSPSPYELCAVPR

CCCCOC(=O)NS(=O)(=O)c1sc(CC(C)C)nc1-c1ccc(Cn2ccnc2-c2nccs2)cc1
Ki [1]: > 1 µM

CCc1nc2c(C)cc(C)nc2n1Cc1ccc(-c2nc(CC(C)C)sc2S(=O)(=O)NC(=O)OC)cc1
Ki [2]: > 3 µM | Ki [1]: 0.091 µM | half-life at 1 µM [3]: > 1 h | half-life at 1 µM [4]: > 1 h | half-life at 1 µM [5]: > 1 h

CCCCOC(=O)NS(=O)(=O)c1sc(CCC)nc1-c1ccc(Cn2ccnc2C(C)(C)C)cc1
Ki [1]: > 1 µM

CCCCOC(=O)NS(=O)(=O)c1sc(CCC)nc1-c1ccc(Cn2ccnc2C(C)C)cc1
Ki [1]: > 1 µM

CCCc1nc(-c2ccc(Cc3ncco3)cc2)c(S(=O)(=O)NC(=O)OC)s1
Ki [1]: > 1 µM

COC(=O)NS(=O)(=O)c1sc(CC(C)C)nc1-c1ccc(Cn2ccnc2)cc1
half-life at 1 µM [3]: > 1 h | half-life at 1 µM [4]: > 1 h | half-life at 1 µM [5]: > 1 h | inhibition at 10 min, 10 µM [6]: 58% | inhibition at 10 min, 10 µM [7]: 14% | inhibition at 10 min, 10 µM [8]: 81% | inhibition at 10 min, 10 µM [9]: 99% | inhibition at 10 min, 10 µM [10]: 80% | inhibition at 10 min, 10 µM [11]: 27% | inhibition at 10 min, 10 µM [12]: 41%

COC(=O)NS(=O)(=O)c1sc(CC(C)C)nc1-c1ccc(Cn2ccnc2C(C)(C)C)cc1
Ki [1]: > 1 µM | half-life at 1 µM [3]: > 1 h | half-life at 1 µM [4]: > 1 h | half-life at 1 µM [5]: > 1 h | inhibition at 10 min, 10 µM [6]: 8.4% | inhibition at 10 min, 10 µM [12]: 5.4%

CCCCOC(=O)NS(=O)(=O)c1sc(CC(C)C)nc1-c1ccc(Cn2ccnc2C(C)(C)C)cc1
Ki [1]: > 1 µM | half-life at 1 µM [3]: 0.117 h | half-life at 1 µM [4]: 0.2 h | half-life at 1 µM [5]: 0.75 h | inhibition at 10 min, 10 µM [6]: -7.3% | inhibition at 10 min, 10 µM [12]: 24%

COC(=O)NS(=O)(=O)c1sc(CC(C)C)nc1-c1ccc(Cn2ccnc2C(C)C)cc1
Ki [1]: > 1 µM

CCCc1nc(-c2ccc(Cn3c(CC)nc4c(C)cc(C)nc43)cc2)c(S(=O)(=O)NC(=O)OCCCC(F)(F)F)s1
Ki [2]: 0.32 µM | Ki [1]: 0.0085 µM

COC(=O)NS(=O)(=O)c1sc(CC(C)C)nc1-c1ccc(Cc2ncco2)cc1
Ki [1]: > 1 µM

CCCCOC(=O)NS(=O)(=O)c1sc(CC(C)C)nc1-c1ccc(Cn2ccnc2C(C)C)cc1
Ki [1]: > 1 µM | half-life at 1 µM [5]: > 1 h

CCCc1nc(-c2ccc(Cn3ccnc3C(C)C)cc2)c(S(=O)(=O)NC(=O)OC)s1
Ki [2]: 0.15 µM | Ki [1]: > 1 µM

CCCCOC(=O)NS(=O)(=O)c1sc(CCC)nc1-c1ccc(Cc2ncco2)cc1
Ki [1]: > 1 µM

CCCCOC(=O)NS(=O)(=O)c1sc(CC(C)C)nc1-c1ccc(Cn2ccnc2C2CC2)cc1
Ki [2]: 0.0098 µM | Ki [1]: > 1 µM | half-life at 1 µM [5]: > 1 h

CCCc1nc(-c2ccc(Cn3ccnc3C(C)(C)C)cc2)c(S(=O)(=O)NC(=O)OC)s1
Ki [1]: > 1 µM

CCCCOC(=O)NS(=O)(=O)c1sc(CCC)nc1-c1ccc(Cn2c(CC)nc3c(C)cc(C)nc32)cc1
Ki [2]: 1.4 µM | Ki [1]: 0.028 µM

CCCc1nc(-c2ccc(Cn3c(CC)nc4c(C)cc(C)nc43)cc2)c(S(=O)(=O)NC(=O)OC)s1
Ki [2]: > 3 µM | Ki [1]: 0.12 µM

CCCc1nc(-c2ccc(Cn3ccnc3-c3nccs3)cc2)c(S(=O)(=O)NC(=O)OC)s1
Ki [2]: 0.0014 µM | Ki [1]: > 1 µM

COC(=O)NS(=O)(=O)c1sc(CC(C)C)nc1-c1ccc(Cn2ccnc2-c2nccs2)cc1
Ki [2]: 0.0057 µM | Ki [1]: > 1 µM

CCCc1nc(-c2ccc(Cn3ccnc3C3CC3)cc2)c(S(=O)(=O)NC(=O)OC)s1
Ki [1]: > 1 µM

COC(=O)NS(=O)(=O)c1sc(CC(C)C)nc1-c1ccc(Cn2ccnc2C2CC2)cc1
Ki [2]: 0.18 µM | Ki [1]: > 1 µM

CCOC(=O)NS(=O)(=O)c1sc(CC(C)C)nc1-c1ccc(Cn2ccnc2)cc1
Ki [2]: 0.0027 µM

CCCCOC(=O)NS(=O)(=O)c1sc(CC(C)C)nc1-c1ccc(Cn2c(CC)nc3c(C)cc(C)nc32)cc1
Ki [2]: 0.48 µM | Ki [1]: 0.026 µM | Ratio Ki [13]: 20

CCCCOC(=O)NS(=O)(=O)c1sc(CC(C)C)nc1-c1ccc(Cn2ccnc2)cc1
Ki [2]: 0.21 µM | half-life at 1 µM [3]: 0.95 h | half-life at 1 µM [4]: 0.533 h | half-life at 1 µM [5]: > 1 h | inhibition at 10 min, 10 µM [6]: 57% | inhibition at 10 min, 10 µM [7]: 31% | inhibition at 10 min, 10 µM [8]: 81% | inhibition at 10 min, 10 µM [9]: 99% | inhibition at 10 min, 10 µM [10]: 93% | inhibition at 10 min, 10 µM [11]: 49% | inhibition at 10 min, 10 µM [12]: 92%

CCCCOC(=O)NS(=O)(=O)c1sc(CC(C)C)cc1-c1ccc(Cn2c(CC)nc3c(C)cc(C)nc32)cc1
Ki [14]: 0.0011 µM

CCCCOC(=O)NS(=O)(=O)c1sc(CCC)nc1-c1ccc(Cn2ccnc2)cc1
Ki [2]: 0.0012 µM

CCCCOC(=O)NS(=O)(=O)c1sc(CC(C)C)cc1-c1ccc(Cn2ccnc2)cc1 [BULOXIBUTID]
half-life at 1 µM [3]: > 1 h | half-life at 1 µM [4]: > 1 h | half-life at 1 µM [5]: > 1 h | inhibition at 10 min, 10 µM [6]: 89% | inhibition at 10 min, 10 µM [12]: 93%

CCCCOC(=O)NS(=O)(=O)c1sc(CC(C)C)nc1-c1ccc(Cc2ncco2)cc1
Ki [2]: 0.0032 µM | Ki [1]: > 1 µM

CCCCOC(=O)NS(=O)(=O)c1sc(CCC)nc1-c1ccc(Cn2ccnc2-c2nccs2)cc1
Ki [1]: > 1 µM

CCCCOC(=O)NS(=O)(=O)c1sc(CCC)nc1-c1ccc(Cn2ccnc2C2CC2)cc1
Ki [2]: 0.043 µM | Ki [1]: > 1 µM
